According to patent US20170114025A1, “METHODS FOR INHIBITING NECROPTOSIS” (Catalyst Therapeutics Pty Ltd, priority 2014, published 2017):
Like-named read-outs stand apart in the source and are kept apart here.

Assays:
[1] = target: T1, mouse MLKL(179-464) pseudokinase domain (Mus musculus, UniProt Q9D2Y4); assay: Surface Plasmon Resonance (SPR) binding, mouse MLKL
T1 construct: made in house; host or cells: Sf21 insect cells
T1 sequence (Q9D2Y4 179-464 isoform Q9D2Y4-2): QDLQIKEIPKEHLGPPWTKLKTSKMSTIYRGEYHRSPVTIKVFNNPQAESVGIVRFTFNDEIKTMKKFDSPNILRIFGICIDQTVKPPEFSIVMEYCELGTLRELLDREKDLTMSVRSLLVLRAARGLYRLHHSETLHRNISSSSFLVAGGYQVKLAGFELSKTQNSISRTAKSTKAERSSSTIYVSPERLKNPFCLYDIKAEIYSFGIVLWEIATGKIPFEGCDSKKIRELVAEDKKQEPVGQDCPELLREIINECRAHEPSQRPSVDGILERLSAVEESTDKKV
Excerpt: Double His-tagged MLKL and an unrelated negative control reference protein were immobilized on an NTA Capture chip charged with Ni^2+ according to manufacturer's instructions. In some instances, double His-tagged proteins were captured via Ni^2+/NTA chelation on a series S sensor chip containing carboxymethylated dextran surface pre-immobilized with nitrilotriacetic acid (NTA). The surface was then activated and enhanced with NHS/EDC mixture and His captured proteins covalently coupled to the surface as succinamide esters. Ethanolamine was injected later to block any unreacted esters. Unbound Ni^2+ and non-covalently bound proteins were eluted by EDTA injections.
Typical immobilization levels were 2000-3000 Response Units (RU). Flow cell 1 was left blank as a reference surface. Immobilization experiments were carried out at 25° C. in a running buffer containing 20 mM HEPES (pH 8.0), 200 mM NaCl and 0.005% (v/v) surfactant P20.
Binding experiments were carried out in Running Buffer+2% v/v DMSO. […] Data were reduced, solvent corrected, and double referenced by Biacore T200 Evaluation Software. Data were fit globally to a two state kinetic interaction model and the Kd determined from the (kd/ka) ratio. A 1:1 binding stoichiometry was inferred from the steady state binding curves and the maximum observed Response Unit (RU) levels.

wild type U937 cells = assay: Cell death assay, TSQ-induced necroptosis in U937 cells (PI, flow cytometry); format: cell-based, human; conditions: for IC50: Homo sapiens
Excerpt: (§1) Mouse dermal fibroblasts (MDFs) were isolated from three MlkI^−/− mice and three congenic wild type mice and then immortalized by SV40 large T antigen to generate three biologically independent cell lines, as described in Murphy J M, et al. (2013), Immunity 39(3):443-453. Immortalized MDFs were similarly prepared from three Ripk3^−/− mice and congenic wild type mice. MDFs and HEK293T were maintained in Dulbecco's modified Eagle's medium (DMEM) supplemented with 8-10% v/v fetal calf serum (FCS), and 5 μg/mL puromycin for lines stably transduced with inducible expression constructs for MLKL. U937 cells were cultured in RPMI1640 supplemented with 8% v/v FCS. Cell death assays were carried out in 24 well plates, seeding 1×10^5 cells per well. Cells attached over 4 h in the presence of 10 ng/mL doxycycline or 20 ng/mL were then treated with assorted combinations of Necrostatin (50 μM) and Q-VD-OPh (5 μM) 30 min prior to addition of TNF (100 ng/mL) and Smac mimetic (500 nM). After 24 h for MDF cells or 48 h for U937 cells, cells were harvested and PI positive cells (1 μg/mL) quantified using a BD FACSCalibur flow cytometer.

[2] = test system: U937 human histiocytic leukemia cell line; assay: Screening for inhibition of TSQ induced necroptosis, 96 well plate format; format: cell-based; conditions: U-937, 48 h
Protocol: Screening Compounds for Inhibition of TSQ Induced Necroptosis, 96 Well Plate Format.
U937 human histiocytic leukemia cell line.
35,000 per well in 120 μL of media, counted and plated immediately prior to addition of inhibitor and death stimuli. Final well volume of 150 μL after addition of compounds and death stimuli
HTRPMI (WEHI Media kitchen, contains L-Glutamine and penicillin, streptomycin)—supplemented with 7.4% v/v FCS (Gibco, Precision Plus. Lot #1221437)
48 hours following addition of compounds and death stimuli
DMSO Final Concentration (% v/v): 0.2%
Compounds that are in the Death Stimulation Cocktail and their Final Concentrations: • hTNF-Fc (100 ng/ml)—produced by Silke lab, WEHI • Compound A (500 nM)—Smac mimetic, Tetralogic • Q-VD-OPh (10 μM)—MP Biomedicals
Analysis: • Cells treated with PI staining (1 μg/ml) and analysed by flow cytometry
TNF; S: Smac mimetic; Q: Q-VD-OPh): TSQ treatment ensures that cells specifically undergo necroptotic cell death. TNF activates the TNF receptor, Smac mimetic direct the signal away from proinflammatory signaling and toward the RIP1/RIP3-mediated cell death pathways, and Q-VD-OPh ensures that the apoptotic response is blocked leaving only the programmed necrosis response. The compounds' activity (solution in DMSO) tested in this TSQ-induced assay is evaluated by measuring their ability to block cell death as measured by flow cytometry after PI staining.

[3] = target: T1, mouse MLKL(179-464) pseudokinase domain; assay: STD NMR nucleotide competition, mouse MLKL; format: binding; conditions: 200 μM compound, 200 μM nucleotide, 2 μM mouse MLKL(179-464)
Protocol: Nucleotides were dissolved in NMR buffer (20 mM HEPES, pH 7.5, 200 mM NaCl, 90% D2O, 10% H2O) at a final concentration of 200 μM in each sample of STD experiments. Three different samples were prepared for each nucleotide: (1) ATP or ADP with protein buffer added as equivalent volume of protein containing samples (2) ATP or ADP with MLKL pseudokinase domain at a final concentration of 2 μM (3) ATP or ADP with MLKL pseudokinase domain (2 μM) with test compound at 200 μM. […] Saturation of the protein resonances was achieved by a 4 s train of Gaussian pulses centred at −0.5 ppm. For the reference spectra, a similar saturation pulse was applied at a frequency centred 20,000 Hz off-resonance. A 15 ms T2-spin-lock period was employed before acquisition to allow the residual protein signal to decay. NMR data were processed in TOPSPIN version 3.2 (Bruker BioSpin).

[4] = test system: U937 cells gene-edited to delete MLKL; assay: Toxicity / TS-induced apoptotic death in U937 cells gene-edited to delete MLKL; format: cell-based, human; conditions: U937 cells lacking MLKL, TS treatment
Excerpt: as §1

CN(c1ccc(NC(=O)Nc2ccc(OC(F)(F)F)cc2)cc1)c1ccnc(Nc2cccc(S(N)(=O)=O)c2)n1 [Compound 1, 3-((4-(methyl(4-(3-(4-(trifluoromethoxy)phenyl)ureido)phenyl)amino)pyrimidin-2-yl)amino)benzenesulfonamide]
Kd [1]: 9300 nM
IC50 (wild type U937 cells; U-937, 48 h, read-out: IC50, rescue from TSQ-induced necroptosis): 50 to 100 nM
IC50 (wild type U937 cells; U-937, read-out: Inhibition of necroptosis (IC50)): 50 to 100 nM
cells rescued from TSQ-induced necroptosis (wild type U937 cells; wt U937 cells, 48 h): ~50%
IC50 ([2]; read-out: Cell based assay Average): 69.4 nM
IC50 ([2]; read-out: Cell based assay IC50): 25.4 nM
competition with ATP and ADP for binding (STD NMR) [3]: can compete with (i) ATP and (ii) ADP
effect on TS-induced apoptotic death [4]: unaffected
